Results published in ChEMBL document CHEMBL1201862, “PubChem BioAssay data set” (2004).
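In this assay, cells in 96-well plates receive the compound at five concentrations for 48 hours. Endpoints are linearly interpolated between the surrounding concentrations. At the GI50, growth is halved.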 Activity calls are given as the source filed them. Cut-off read from the data, not from the text of the source: active = GI50 up to about 1.1 µM and inactive = higher. Bridge positions count the residues as written; N and C are the ends. Where a SMILES comes first, the peptide text is derived from it. Peptide text beside a SMILES is read from it. [ ]: non-standard residue; d: D form. * marks the point of attachment. Aoe = N[C@@H](CCCCCC(=O)[C@@H]1CO1)C(=O)O; Cbz = O=C(OCc1ccccc1)*

Assays:
Assay in all cases: NCI-60 cell line screen, 48 h
NCI-H226 = system: NCI-H226
SNB-75 = system: SNB-75
HL-60 = system: HL-60
KM12 = system: KM12
CAKI-1 = system: CAKI-1
PC-3 = system: PC-3
UO-31 = system: UO-31
RXF 393 = system: RXF 393
CCRF-CEM = system: CCRF-CEM
ACHN = system: ACHN
A549 = system: A549
DU-145 = system: DU-145
HCC 2998 = system: HCC 2998
HCT-15 = system: HCT-15
EKVX = system: EKVX
NCI-H522 = system: NCI-H522
NCI/ADR-RES = system: NCI/ADR-RES
K562 = system: K562
SF-539 = system: SF-539
TK-10 = system: TK-10

SMILES | GI50 (NCI-H226) | GI50 (SNB-75) | GI50 (HL-60) | GI50 (KM12) | GI50 (CAKI-1) | GI50 (PC-3) | GI50 (UO-31) | GI50 (RXF 393) | GI50 (CCRF-CEM) | GI50 (ACHN) | GI50 (A549) | GI50 (DU-145) | GI50 (HCC 2998) | GI50 (HCT-15) [µM] | GI50 (EKVX) | GI50 (NCI-H522) | GI50 (NCI/ADR-RES) | GI50 (K562) | GI50 (SF-539) | GI50 (TK-10)
CN(C)C(=O)c1nnsc1NN=O | > 100 µM (inactive) | > 100 µM (inactive) | > 100 µM (inactive) | > 100 µM (inactive) | > 100 µM (inactive) | > 100 µM (inactive) | > 100 µM (inactive) | > 100 µM (inactive) | > 100 µM (inactive) | > 100 µM (inactive) | > 100 µM (inactive) | > 100 µM (inactive) | > 100 µM (inactive) | > 100 | > 100 µM (inactive) | > 100 µM (inactive) | > 100 µM (inactive) | > 100 µM (inactive) |  | 
OCCNC1=Nc2ccc(Cl)cc2C(=S)N2CSC[C@@H]12 |  |  |  | > 100 µM (inactive) | > 100 µM (inactive) | > 100 µM (inactive) | > 100 µM (inactive) | > 100 µM (inactive) |  | > 100 µM (inactive) | > 100 µM (inactive) | > 100 µM (inactive) | > 100 µM (inactive) | > 100 |  | > 100 µM (inactive) | > 100 µM (inactive) | > 100 µM (inactive) | > 100 µM (inactive) | 
COc1cc(Cn2c3c(c4cc(O)ccc42)C(=O)c2ccccc2C3=O)cc(OC)c1 |  |  | 13.7 µM (inactive) | 2.43 µM (inactive) | 15.2 µM (inactive) | 2.46 µM (inactive) | 4.32 µM (inactive) | 3.92 µM (inactive) |  | 1.61 µM (inactive) | 10.5 µM (inactive) | 10.8 µM (inactive) | 6.19 µM (inactive) | 11.7 | 15.3 µM (inactive) | 2.43 µM (inactive) | 6 µM (inactive) |  | 2.05 µM (inactive) | 11.6 µM (inactive)
Cc1ccc(S(=O)(=O)O)cc1.c1cc2c(c(NC3=NCCN3)c1)CCCC2 | > 100 µM (inactive) | 89.3 µM (inactive) | > 100 µM (inactive) | > 100 µM (inactive) | > 100 µM (inactive) | > 100 µM (inactive) |  | > 100 µM (inactive) | > 100 µM (inactive) | > 100 µM (inactive) | > 100 µM (inactive) | > 100 µM (inactive) |  | > 100 | > 100 µM (inactive) | > 100 µM (inactive) | > 100 µM (inactive) | > 100 µM (inactive) | > 100 µM (inactive) | > 100 µM (inactive)
CCNC(=O)Cc1nc2c(N)ncnc2n1C1OC(CO)C(O)C1O (stereo not drawn) | > 100 µM (inactive) |  | 91.4 µM (inactive) | > 100 µM (inactive) | > 100 µM (inactive) | > 100 µM (inactive) | > 100 µM (inactive) |  | > 10 µM (inactive) | > 100 µM (inactive) | > 100 µM (inactive) | > 100 µM (inactive) | 95.7 µM (inactive) | > 100 | > 100 µM (inactive) | > 100 µM (inactive) | > 100 µM (inactive) | > 100 µM (inactive) | > 100 µM (inactive) | > 100 µM (inactive)
Cc1ccc(-n2cc([Si](C)(C)C)nn2)s1 | > 100 µM (inactive) |  |  |  | > 100 µM (inactive) | 97.5 µM (inactive) | 84.3 µM (inactive) |  |  | > 100 µM (inactive) | > 100 µM (inactive) | > 100 µM (inactive) | 81.3 µM (inactive) | > 100 |  | > 100 µM (inactive) | 48.4 µM (inactive) | 45.1 µM (inactive) | > 100 µM (inactive) | > 100 µM (inactive)
CC(=O)OC1O[C@@H](C(C)(C)O)CC[C@@H]1[C@H]1CC[C@@]2(C)C3=C(CC[C@]12C)[C@@]1(C)C[C@@H](OC(=O)CC(C)(O)CC(=O)O)[C@H](OC(C)=O)C(C)(C)C1CC3 (stereo partly drawn) | 21.7 µM (inactive) |  | 24.4 µM (inactive) | 21.9 µM (inactive) | 15.8 µM (inactive) | 17 µM (inactive) | 15 µM (inactive) |  | 20.8 µM (inactive) | 18 µM (inactive) | 17.2 µM (inactive) | 19.1 µM (inactive) | 19 µM (inactive) | 22.4 | 17.5 µM (inactive) |  | 18.1 µM (inactive) | 31.3 µM (inactive) |  | 19.1 µM (inactive)
CNC(=O)C1CCCCNC(=O)CCC(NC(=O)OCc2ccccc2)C(=O)N1 (stereo not drawn) (Cbz-Glu-Lys-NHMe; lactam 1-2; configuration not given here) | > 100 µM (inactive) | > 100 µM (inactive) | > 100 µM (inactive) | > 100 µM (inactive) | > 100 µM (inactive) | > 100 µM (inactive) | > 100 µM (inactive) | > 100 µM (inactive) | > 100 µM (inactive) | > 100 µM (inactive) | > 100 µM (inactive) | > 100 µM (inactive) |  | > 100 | > 100 µM (inactive) | > 100 µM (inactive) | > 100 µM (inactive) | > 100 µM (inactive) | > 100 µM (inactive) | > 100 µM (inactive)
Cc1ccc([N+](=O)[O-])cc1S(=O)(=O)Nc1ccc(C2=NN(C(=O)c3ccccc3)C(c3cccs3)C2)cc1 (stereo not drawn) | 21.5 µM (inactive) | 20.2 µM (inactive) | 26.3 µM (inactive) | 32.7 µM (inactive) | 26.2 µM (inactive) | 21.9 µM (inactive) | 24 µM (inactive) | 15.2 µM (inactive) | 37.8 µM (inactive) | 25.4 µM (inactive) | 19.5 µM (inactive) | 34.2 µM (inactive) |  | 21 | 21.5 µM (inactive) | 12.9 µM (inactive) | 30.9 µM (inactive) | 22.1 µM (inactive) | 18.2 µM (inactive) | 21.4 µM (inactive)
Cc1ccc(S(=O)(=O)NC(=O)NS(=O)(=O)O)cc1 |  | > 100 µM (inactive) | > 100 µM (inactive) | > 100 µM (inactive) |  | > 100 µM (inactive) | > 100 µM (inactive) | > 100 µM (inactive) | > 100 µM (inactive) | > 100 µM (inactive) | > 100 µM (inactive) | > 100 µM (inactive) |  | > 100 |  | > 100 µM (inactive) | > 100 µM (inactive) | > 100 µM (inactive) | > 100 µM (inactive) | > 100 µM (inactive)
O=C1c2cc(I)ccc2N2CCN=C2N1Cc1ccccc1 | > 100 µM (inactive) | 19.7 µM (inactive) | 0.551 µM (active) | > 100 µM (inactive) | > 100 µM (inactive) | > 100 µM (inactive) | 57.4 µM (inactive) | 23.7 µM (inactive) | > 100 µM (inactive) | 51.2 µM (inactive) | > 100 µM (inactive) | > 100 µM (inactive) |  | > 100 | 22.1 µM (inactive) | > 100 µM (inactive) | 70.8 µM (inactive) | > 100 µM (inactive) | 37.5 µM (inactive) | > 100 µM (inactive)
CCOC(=O)c1c(-c2ccc(O)c(OC)c2)c(C#N)c(=S)n(C2OC(CO)C(O)C(O)C2O)c1-c1ccccc1 (stereo not drawn) | 13 µM (inactive) |  | > 100 µM (inactive) | > 100 µM (inactive) | > 100 µM (inactive) | > 100 µM (inactive) | > 100 µM (inactive) | > 100 µM (inactive) | > 100 µM (inactive) | > 100 µM (inactive) | > 100 µM (inactive) | > 100 µM (inactive) | > 100 µM (inactive) | > 100 | > 100 µM (inactive) |  | > 100 µM (inactive) | > 100 µM (inactive) |  | 
CN1C/C(=C\c2cccs2)C2=NC(=S)NC(c3cccs3)C2C1 (stereo not drawn) | > 100 µM (inactive) |  | 2.22 µM (inactive) | 57 µM (inactive) | > 100 µM (inactive) | > 100 µM (inactive) | 38.3 µM (inactive) | 88.7 µM (inactive) | 19.7 µM (inactive) | 64.9 µM (inactive) | 50.7 µM (inactive) | > 100 µM (inactive) | 93.8 µM (inactive) | 77.6 | 56.4 µM (inactive) | 36.4 µM (inactive) | 44.4 µM (inactive) | 44.7 µM (inactive) |  | 46.1 µM (inactive)
c1ccc(CNCCCCNCCCNCc2ccccc2)cc1 | 20.2 µM (inactive) | 19.4 µM (inactive) |  | 20 µM (inactive) | 13.6 µM (inactive) | 13.6 µM (inactive) | 21.5 µM (inactive) | 16.4 µM (inactive) | 13 µM (inactive) | 15.7 µM (inactive) | 17.4 µM (inactive) | 23.6 µM (inactive) | 16.9 µM (inactive) | 19 | 25.6 µM (inactive) | 15.2 µM (inactive) | > 100 µM (inactive) | 18 µM (inactive) |  | 19.8 µM (inactive)
O=C1N[C@@H](Cc2ccccc2)C(=O)N2CCC[C@@H]2C(=O)N[C@@H](CCCCCC(=O)[C@@H]2CO2)C(=O)N[C@H]1Cc1ccccc1 [TRAPOXIN B] (cyclo(FF[dP][Aoe])) | 0.222 µM (active) | 0.00366 µM (active) |  | 0.000735 µM (active) | 0.00157 µM (active) | 0.00209 µM (active) | 0.00209 µM (active) |  | 0.0151 µM (active) | 0.00124 µM (active) | 0.00265 µM (active) | 0.00136 µM (active) | 0.0343 µM (active) | 0.0432 | 0.0632 µM (active) | 0.00052 µM (active) | 0.0475 µM (active) | < 0.000212 µM (active) |  | 0.00368 µM (active)
COC(=O)c1c(-c2ccc(Cl)cc2)cc2c3ccccc3n(C)c2c1C(=O)OC | > 100 µM (inactive) |  | 26.8 µM (inactive) | > 100 µM (inactive) | > 100 µM (inactive) | > 100 µM (inactive) | 2.47 µM (inactive) |  | 7.85 µM (inactive) | > 100 µM (inactive) | > 100 µM (inactive) | > 100 µM (inactive) |  | > 100 | > 100 µM (inactive) | 67.5 µM (inactive) | > 100 µM (inactive) | 22.8 µM (inactive) | > 100 µM (inactive) | > 100 µM (inactive)
